# Data as given in PubChem BioAssay AID1963833 (Molecular Pharmacology Branch, DTP, NCI, 2024).
# System: 883617-216-R-J1-PDC complex spheroid viability
# Assay: Anticancer human tumor 883617-216-R-J1-PDC patient-derived bladder carcinoma cell line growth inhibition [POLQ]
# Details: for IC50: curve of first compound; for viability, T/C: stronger effect = lower value
# Experimental: Multicellular complex tumor spheroid response to Polymerase (POL) inhibitors (novobiocin, ART-558, RP6685) in combination with a variety of drugs and investigational agents in selected tumor cell lines
# The POL inhibitors (novobiocin, ART-558, and RP6685) were evaluated both individually and in combination with standard of care and investigational anticancer small molecules within a complex spheroid model of solid tumors. . Complex spheroids include a stromal component modeled by human endothelial cells (HUVEC) and fibroblasts modeled by human mesenchymal stem cells (MSCs). The concentration ranges selected for each drug and investigational agent were based upon clinically achievable concentrations if the clinical Cmax of the agent was known.
# Compounds. The drugs and investigational agents: novobiocin (NSC847541), ART-558 (NSC835418), RP-6685 (NSC848927), peposertib (NSC802822), ceralasertib (NSC780249), elimusertib (NSC800525), camonsertib (NSC841442), AZD-1390 (NSC803789), olaparib (NSC753686), talazoparib (NSC767125), rucaparib (NSC756644), sotorasib (NSC818433), MRTX-1133 (NSC836407), SN-38 (NSC673596), topotecan (NSC609699), epotoside (NSC141540), doxorubicin (NSC123127), gemcitabine (NSC613327), 5-fluorouracil (NSC19893), paclitaxel (NSC125973), vemurafenib (NSC761431), MSA-2 (NSC828583), SN-011 (NSC837082), adavosertib (NSC754352), prexasertib (NSC758257), carboplatin (NSC241240) and oxaliplatin (NSC266046), were obtained from the National Cancer Institute (NCI) Developmental Therapeutics Program Chemical Repository (21). The FDA-approved anticancer drug set is available from the Developmental Therapeutics Program at https://dtp.cancer.gov/organization/dscb/obtaining/. […] The stock solutions were prepared in dimethyl sulfoxide (DMSO, Sigma-Aldrich, St. Louis, MO, cat. D2650), except for the platinum compounds which were prepared in saline (Quality Biological, Gaithersburg, MD, cat. 114-055-101), at 800-fold the tested concentration and stored at -70 degrees C prior to their use. All drugs and investigational agents were tested over a range starting from a high concentration at or near the clinical Cmax and decreasing in half-log increments. If the clinical Cmax for an agent had not been determined, the highest concentration tested was 10 microM, except for SN-38, which was tested at a high concentration of 1 microM.
# Cell Culture. All cells were maintained in an incubator at 37 degrees C and 5% CO2 with 95% humidity. The PDC lines were cultured according to standard operating procedures established by the NCI PDMR (https://pdmr.cancer.gov). Table 3 of the manuscript, lists the cell lines along with the number of the three cell types plated to form the mct-spheroids and media for tumor cell growth. After thawing, all PDC lines, except 997537-175-T-J1-PDC and 415267-285-R-J2-PDC, were cultured in Matrigel-coated flasks prepared with a working solution of 1X Ham's F-12 nutrient mix, without supplementation (Thermo Fisher Scientific, cat. 11765054), 100 U/mL penicillin-streptomycin (Thermo Fisher Scientific, cat. 15140122), and 2.5% Matrigel (Corning Inc., Corning, NY, cat. 354248) for the first three passages. The two PDC lines 997537-175-T-J1-PDC and 415267-285-R-J2-PDC were cultured on uncoated flasks. The 857933-349-R-J2-PDC line was cultured in 6C/Colon 1B media containing advanced DMEM/F-12 (Thermo Fisher Scientific, cat. 12634028), 10 mM HEPES (Thermo Fisher Scientific, cat. 15630080), 1X GlutaMAX supplement (Thermo Fisher Scientific, cat. 35050061), 0.1 mg/mL primocin (InvivoGen, San Diego, CA, cat. ant-pm-2), 10% defined fetal bovine serum, heat inactivated (HyClone Laboratories Inc., Logan, UT, cat. SH30070.03HI), 50% L-WRN conditioned media (ATCC, cat. CRL-3276), 1.25 mM N-Acetyl-L-cysteine (Sigma-Aldrich, cat. A9165), 10 mM nicotinamide (Sigma-Aldrich, cat. N0636), 1X B-27 supplement (Thermo Fisher Scientific, cat. 17504044), 1X N-2 supplement (Thermo Fisher Scientific, cat. […]
# [1] = second compound 0.0316 µM, first compound 0.0316 µM
# [2] = second compound 0.0316 µM, first compound 0.1 µM
# [3] = second compound 0.0316 µM, first compound 0.316 µM
# [4] = second compound 0.0316 µM, first compound 1 µM
# [5] = second compound 0.0316 µM, first compound 3.16 µM
# [6] = second compound 0.0316 µM, first compound 10 µM
# [7] = second compound 0.1 µM, first compound 0.0316 µM
# [8] = second compound 0.1 µM, first compound 0.1 µM
# [9] = second compound 0.1 µM, first compound 0.316 µM
# [10] = second compound 0.1 µM, first compound 1 µM
# [11] = second compound 0.1 µM, first compound 3.16 µM
# [12] = second compound 0.1 µM, first compound 10 µM
# [13] = second compound 0.316 µM, first compound 0.0316 µM
# [14] = second compound 0.316 µM, first compound 0.1 µM
# [15] = second compound 0.316 µM, first compound 0.316 µM
# [16] = second compound 0.316 µM, first compound 1 µM
# [17] = second compound 0.316 µM, first compound 3.16 µM
# [18] = second compound 0.316 µM, first compound 10 µM
# [19] = second compound 1 µM, first compound 0.0316 µM
# [20] = second compound 1 µM, first compound 0.1 µM
# [21] = second compound 1 µM, first compound 0.316 µM
# [22] = second compound 1 µM, first compound 1 µM
# [23] = second compound 1 µM, first compound 3.16 µM
# [24] = second compound 1 µM, first compound 10 µM
# [25] = second compound 3.16 µM, first compound 0.0316 µM
# [26] = second compound 3.16 µM, first compound 0.1 µM
# [27] = second compound 3.16 µM, first compound 0.316 µM
# [28] = second compound 3.16 µM, first compound 1 µM
# [29] = second compound 3.16 µM, first compound 3.16 µM
# [30] = second compound 3.16 µM, first compound 10 µM
# [31] = second compound 10 µM, first compound 0.0316 µM
# [32] = second compound 10 µM, first compound 0.1 µM
# [33] = second compound 10 µM, first compound 0.316 µM
# [34] = second compound 10 µM, first compound 1 µM
# [35] = second compound 10 µM, first compound 3.16 µM
# [36] = second compound 10 µM, first compound 10 µM
# 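Note: spheroids exposed to compounds for seven days before readout.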
# 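Throughout, for viability, T/C: 100% = DMSO vehicle control viability.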
smiles,measurement,setting,value
C=CC(=O)N1CCN(c2nc(=O)n(-c3c(C)ccnc3C(C)C)c3nc(-c4c(O)cccc4F)c(F)cc23)C(C)C1 (centres undefined) + COC1C(OC(N)=O)C(O)C(Oc2ccc3c(O)c(NC(=O)c4ccc(O)c(CC=C(C)C)c4)c(=O)oc3c2C)OC1(C)C,IC50,second compound 0.0316 µM,> 10 µM
same,IC50,second compound 0.1 µM,> 10 µM
same,IC50,second compound 0.316 µM,> 10 µM
same,IC50,second compound 1 µM,> 10 µM
same,IC50,second compound 3.16 µM,> 10 µM
same,IC50,second compound 10 µM,> 10 µM
same,"viability, T/C",[1],79.2%
same,"viability, T/C",[2],77.5%
same,"viability, T/C",[3],70.8%
same,"viability, T/C",[4],98.3%
same,"viability, T/C",[5],81.7%
same,"viability, T/C",[6],87.6%
same,"viability, T/C",[7],72.5%
same,"viability, T/C",[8],68.2%
same,"viability, T/C",[9],67.3%
same,"viability, T/C",[10],81.8%
same,"viability, T/C",[11],102%
same,"viability, T/C",[12],80.5%
same,"viability, T/C",[13],70.2%
same,"viability, T/C",[14],78.7%
same,"viability, T/C",[15],68.5%
same,"viability, T/C",[16],73.7%
same,"viability, T/C",[17],85.5%
same,"viability, T/C",[18],75.9%
same,"viability, T/C",[19],81.8%
same,"viability, T/C",[20],65.9%
same,"viability, T/C",[21],73.2%
same,"viability, T/C",[22],78.2%
same,"viability, T/C",[23],89.9%
same,"viability, T/C",[24],76.5%
same,"viability, T/C",[25],78.3%
same,"viability, T/C",[26],62.4%
same,"viability, T/C",[27],79.3%
same,"viability, T/C",[28],69.5%
same,"viability, T/C",[29],79%
same,"viability, T/C",[30],76.8%
same,"viability, T/C",[31],68%
same,"viability, T/C",[32],60.6%
same,"viability, T/C",[33],76.5%
same,"viability, T/C",[34],85.5%
same,"viability, T/C",[35],84.2%
same,"viability, T/C",[36],91.4%
CC1COCCN1c1cc(C2(O)CC3CCC(C2)O3)c2cnn(-c3ccn[nH]3)c2n1 (centres undefined) + COC1C(OC(N)=O)C(O)C(Oc2ccc3c(O)c(NC(=O)c4ccc(O)c(CC=C(C)C)c4)c(=O)oc3c2C)OC1(C)C,IC50,second compound 0.0316 µM,0.102 µM
same,IC50,second compound 0.1 µM,0.17 µM
same,IC50,second compound 0.316 µM,0.135 µM
same,IC50,second compound 1 µM,0.0906 µM
same,IC50,second compound 3.16 µM,0.135 µM
same,IC50,second compound 10 µM,0.107 µM
same,"viability, T/C",[1],72.8%
same,"viability, T/C",[2],49.2%
same,"viability, T/C",[3],35.2%
same,"viability, T/C",[4],34.4%
same,"viability, T/C",[5],24.9%
same,"viability, T/C",[6],21.8%
same,"viability, T/C",[7],66.8%
same,"viability, T/C",[8],56.8%
same,"viability, T/C",[9],42.3%
same,"viability, T/C",[10],27.6%
same,"viability, T/C",[11],25%
same,"viability, T/C",[12],21.8%
same,"viability, T/C",[13],68.4%
same,"viability, T/C",[14],53.1%
same,"viability, T/C",[15],40.9%
same,"viability, T/C",[16],27.7%
same,"viability, T/C",[17],25.6%
same,"viability, T/C",[18],21.7%
same,"viability, T/C",[19],73.4%
same,"viability, T/C",[20],45.2%
same,"viability, T/C",[21],37.1%
same,"viability, T/C",[22],30.7%
same,"viability, T/C",[23],25.9%
same,"viability, T/C",[24],22.3%
same,"viability, T/C",[25],68.7%
same,"viability, T/C",[26],52.4%
same,"viability, T/C",[27],40.9%
same,"viability, T/C",[28],32.4%
same,"viability, T/C",[29],27.8%
same,"viability, T/C",[30],21.3%
same,"viability, T/C",[31],58.5%
same,"viability, T/C",[32],52.5%
same,"viability, T/C",[33],42.9%
same,"viability, T/C",[34],31.2%
same,"viability, T/C",[35],29.1%
same,"viability, T/C",[36],23%
